Source: BindingDB's records for doi:10.7270/Q27W69N8 (Srmlsc, 2009)
Where “and” joins values, the source holds several entries; their conditions need not be identical. Equal entries are not always repeated.

Biological target: T1, M17 leucyl aminopeptidase (Plasmodium falciparum (isolate 3D7), UniProt Q8IL11)
T1 sequence (Q8IL11 whole entry): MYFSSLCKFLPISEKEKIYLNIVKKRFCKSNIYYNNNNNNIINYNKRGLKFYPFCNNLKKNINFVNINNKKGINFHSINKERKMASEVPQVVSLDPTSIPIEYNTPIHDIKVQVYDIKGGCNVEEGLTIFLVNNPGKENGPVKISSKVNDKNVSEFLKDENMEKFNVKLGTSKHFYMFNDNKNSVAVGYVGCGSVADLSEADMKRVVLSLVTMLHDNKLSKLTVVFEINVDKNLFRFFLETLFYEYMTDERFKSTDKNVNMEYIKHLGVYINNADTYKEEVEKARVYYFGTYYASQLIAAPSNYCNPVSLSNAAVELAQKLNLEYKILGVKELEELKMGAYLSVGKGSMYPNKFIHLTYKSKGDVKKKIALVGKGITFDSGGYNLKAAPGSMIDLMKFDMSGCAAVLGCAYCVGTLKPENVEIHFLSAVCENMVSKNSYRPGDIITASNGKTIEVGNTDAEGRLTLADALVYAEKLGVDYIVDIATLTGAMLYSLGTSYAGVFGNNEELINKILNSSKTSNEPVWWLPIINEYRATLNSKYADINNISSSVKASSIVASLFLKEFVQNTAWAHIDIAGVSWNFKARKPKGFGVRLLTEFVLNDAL
Assay: P. falciparum M17LAP inhibitors, primary screen, biochemical, fluorogenic H-Leu-NHMec substrate, 1536-well (AID 1619)

For `CC(CCC1CC(C)OC1=O)N=Nc1nc(-c2ccccc2)cs1` (stereo unspecified) [SMR000204131], the IC50 was 30.8 µM.

`CC(C)(C)OC(=O)C1=[N+]2N[CH-]c3ccccc3C2C2(C(=O)c3ccccc3C2=O)[C@H]1c1ccc([N+](=O)[O-])cc1` (stereo partly drawn) [(2R,3R)-2-(4-nitrophenyl)-1',3'-dioxo-3-spiro[3,10b-dihydro-2H-pyrrolo[2,1-a]phthalazine-1,2'-indene]carboxylic acid tert-butyl ester] gave an IC50 of 2.23 µM.

With `O=C(O)[C@H]1O[C@@H](Oc2c(-c3ccc(O)c(O)c3)oc3cc(O)cc(=O)c-3c2O)[C@H](O)[C@@H](O)[C@@H]1O` [quercetin glucuronide] the IC50 was 48.2 µM.

`Cc1ccc(S(=O)(=O)Oc2cccc(-n3c(O)c4c(c3O)CC=CC4)c2)cc1` [SMR000197106] was tested, and the IC50 was 49.6 µM.

For `N#CC1C(=N)Oc2[nH]nc(-c3ccccc3)c2C1c1ccsc1` (stereo unspecified), the IC50 was 64.5 µM.

`Cc1[nH][nH]c(=O)c1CCC(=O)NN=Cc1ccc(Cl)c(Cl)c1` gave an IC50 of 15 µM.

For `COc1ccc(NC(=O)CSc2cc(O)n(-c3ccc4c(c3)OCCO4)c2O)cc1` [2-[1-(2,3-dihydro-1,4-benzodioxin-6-yl)-2,5-bis(oxidanylidene)pyrrolidin-3-yl]sulfanyl-N-(4-methoxyphenyl)ethanamide], the IC50 was 16.1 µM.

`CN1C(=O)/C(=C/c2ccc(-c3ccccc3[N+](=O)[O-])o2)S/C1=N/c1ccc(Cl)c(C(=O)O)c1` [2-Chloro-5-[3-methyl-5-[1-[5-(2-nitro-phenyl)-furan-2-yl]-meth-(Z)-ylidene]-4-oxo-thiazolidin-(2Z)-ylideneamino]-benzoic acid] showed an IC50 of 6.24 µM.

For `CC(=NNC(=O)Cc1c(C)[nH][nH]c1=O)c1cccs1` [SMR000305285], the IC50 was 3.56 µM.

`CC(=O)N1CCC2(CC1)c1c(CSc3ccc(C)cc3)n[nH]c1OC(=N)C2C#N` (stereo unspecified) [SMR000036525] showed an IC50 of 21.1 µM.

Compound `Cc1[nH][nH]c(=O)c1CCC(=O)NN=CC(Br)=Cc1ccccc1` [N'-(2-bromo-3-phenyl-2-propen-1-ylidene)-3-(3-methyl-5-oxo-4,5-dihydro-1H-pyrazol-4-yl)propanohydrazide] has an IC50 of 8 µM.

Compound `O=NCc1ccc(OCc2ccccc2)c(C(=O)O)c1` [5-(hydroxyiminomethyl)-2-phenylmethoxybenzoic acid] has an IC50 of 16.4 µM.

With `Cc1[nH][nH]c(=O)c1CCC(=O)NN=CC=Cc1ccccc1` the IC50 was 51.4 µM.

With `Cc1ccc(CN=Nc2ccc(C(=O)O)cc2)s1` [SMR000364894] the IC50 was 20.4 µM.

With `COc1ccccc1C=CC=NNC(=O)CCc1c(C)[nH][nH]c1=O` [3-(3-Methyl-5-oxo-4,5-dihydro-1H-pyrazol-4-yl)-propionic acid [(E)-3-(2-methoxy-phenyl)-prop-2-en-(E)-ylidene]-hydrazide] the IC50 was 57.2 µM.

With `O=NCc1c[nH]c2ccccc12` [MLS000104363] the IC50 was 13.2 µM.

`C=C(c1ccc(OC)cc1)c1sc(=S)n(CCC(=O)O)c1O` was tested, and the IC50 was 30.1 µM and 27.4 µM.

`N#Cc1c(NC=C2C(=O)NC(=S)NC2=O)sc2c1CCCC2` [SMR000305847] showed an IC50 of 110 µM.

`Cc1ccc(-c2n[nH]c3c2C(C)C(C#N)C(=N)O3)cc1` (stereo unspecified) [6-amino-4-methyl-3-(4-methylphenyl)-2,4-dihydropyrano[2,3-c]pyrazole-5-carbonitrile] gave an IC50 of 16.3 µM.

`Cc1cc(CN=Nc2ccc([N+](=O)[O-])cn2)c(C)n1-c1ccc(C(=O)O)cc1` [4-{2,5-dimethyl-3-[2-(5-nitro-2-pyridinyl)carbonohydrazonoyl]-1H-pyrrol-1-yl}benzoic acid] was tested, and the IC50 was 12.7 µM.

`Cc1c(C)c(O)c(C=CCCC#CCCCC#CCO)c(C)c1O` [docebenone] was tested, and the IC50 was 53.4 µM.

With `Cc1ccc(-c2n[nH]c3c2C(c2cccnc2)C(C#N)C(=N)O3)cc1` (stereo unspecified) [6-amino-3-(4-methylphenyl)-4-pyridin-3-yl-1,4-dihydropyrano[2,3-c]pyrazole-5-carbonitrile] the IC50 was 25.8 µM.

Compound `Cc1cc(C=C2C(=O)NC(=O)N(c3ccc(F)cc3)C2=O)c(C)n1-c1ccc(C(=O)O)cc1` [SMR000273525] has an IC50 of 149 µM.

Work on `O=C(CSc1n[nH]c(=O)[nH]c1=O)NN=Cc1ccccc1O` [2-[(3,5-dioxo-2,3,4,5-tetrahydro-1,2,4-triazin-6-yl)thio]-N'-(2-hydroxybenzylidene)acetohydrazide] yielded an IC50 of 129 µM.

For `C=CCOc1c(OC)cc(CN=Nc2cccc(C(=O)O)c2)c(Br)c1Br`, the IC50 was 1 µM.

For `CCOc1ccccc1-n1c(O)cc(Sc2nnc(-c3ccccc3)[nH]2)c1O` [1-(2-ethoxyphenyl)-3-[(5-phenyl-4H-1,2,4-triazol-3-yl)thio]-2,5-pyrrolidinedione], the IC50 was 8.97 µM.

Work on `O=C1C=C/C(=C/NN2C(=O)C3C4C=CC(CC4)C3C2=O)C=C1O` (stereo unspecified) [SMR000207592] yielded an IC50 of 34.3 µM.

Compound `Cc1nc2c([nH]1)C1(CCN(Cc3ccccc3)CC1)C(C#N)C(=N)O2` (stereo unspecified) [MLS000047918] has an IC50 of 63.2 µM.

`COc1ccc(CN=Nc2nc(O)c(CC(=O)O)s2)cc1OCc1ccc(Cl)cc1` [2-[2-[2-[[3-[(4-chlorophenyl)methoxy]-4-methoxy-phenyl]methylidene]hydrazinyl]-4-oxidanylidene-1,3-thiazol-5-yl]ethanoic acid] gave an IC50 of 20.3 µM.

With `CC(C)(C)c1ccc(CN=Nc2ccc(C(=O)O)cc2)cc1` the IC50 was 13.3 µM.

With `O=C(Nn1c(O)csc1=S)C(=O)Nn1c(O)csc1=S` [SMR000349781] the IC50 was 20.5 µM.

In the case of `CCOC(=O)C1C(=O)C(=Cc2ccc(OCC(=O)O)c(OCC)c2)SC1=Nc1ccc(C)cc1` (stereo unspecified) [(2-ethoxy-4-{[4-(ethoxycarbonyl)-5-[(4-methylphenyl)amino]-3-oxo-2(3H)-thienylidene]methyl}phenoxy)acetic acid], the IC50 is reported as 15.6 µM.

`Cc1ccc(-c2ccc([CH+][N-]Nc3nc(O)c(CC(=O)O)s3)o2)c([N+](=O)[O-])c1` [SMR000135699] gave an IC50 of 101 µM.

With `CCOC(O)c1oc2c(c(=O)c1-c1nncn1-c1ccccc1)C=CC(=O)C2=O` (stereo unspecified) [ethyl 7,8-dihydroxy-4-oxo-3-(4-phenyl-4H-1,2,4-triazol-3-yl)-4H-chromene-2-carboxylate] the IC50 was 6.58 µM.

`CCOC(=O)C1C(=O)C(=Cc2ccc(OCC(=O)O)c(OCC)c2)SC1=Nc1ccc(OC)cc1` (stereo unspecified) [MLS000704394] showed an IC50 of 21.3 µM.

`CCOc1ccc(-n2c(O)cc(Sc3nnc(-c4ccccc4)[nH]3)c2O)cc1` [MLS000765380] gave an IC50 of 11.1 µM.

Compound `O=C1c2ccccc2C(=O)C1C1=NC(C(=O)O)c2c1c(O)n(-c1ccc(Cl)cc1)c2O` (stereo unspecified) [MLS000331181] has an IC50 of 71.6 µM.

For `CC(=NNC(=O)CCc1c(C)[nH][nH]c1=O)c1ccccc1` [3-(3-methyl-5-oxidanylidene-1,4-dihydropyrazol-4-yl)-N-(1-phenylethylideneamino)propanamide], the IC50 was 36.6 µM.

For `Cc1[nH][nH]c(=O)c1CCC(=O)NN=Cc1ccc(Cl)cc1`, the IC50 was 52.6 µM.

Work on `C/C(=C\c1ccco1)C1c2c(-c3ccccc3)n[nH]c2OC(=N)C1C#N` (stereo unspecified) [6-amino-4-[(E)-1-(furan-2-yl)prop-1-en-2-yl]-3-phenyl-2,4-dihydropyrano[2,3-c]pyrazole-5-carbonitrile] yielded an IC50 of 83.7 µM.

For `O=C(O)c1ccc(N=NCc2ccc(C(F)(F)F)cc2)cc1` [sulfuric acid;4-[(N'E)-N'-[4-(trifluoromethyl)benzylidene]hydrazino]benzoic acid], the IC50 was 46.3 µM.

Work on `C=c1[nH]n(CCC#N)c(=O)c1=Cc1ccc(N(C)C)cc1` [3-[(4E)-4-[[4-(dimethylamino)phenyl]methylidene]-3-methyl-5-oxo-1-pyrazolyl]propanenitrile] yielded an IC50 of 120 µM.

Compound `Cc1ccc(C2C(C(=O)c3ccc(Br)cc3)C(=O)C(=O)N2Cc2ccco2)o1` (stereo unspecified) [(4Z)-4-[(4-bromophenyl)-hydroxy-methylene]-1-(2-furfuryl)-5-(5-methyl-2-furyl)pyrrolidine-2,3-quinone] has an IC50 of 66.4 µM.

Work on `CCOc1ccc(-n2c(O)cc(SCCN)c2O)cc1` [3-(2-Amino-ethylsulfanyl)-1-(4-ethoxy-phenyl)-pyrrolidine-2,5-dione] yielded an IC50 of 23.6 µM.

Work on `CC(C)CC1c2c(-c3ccccc3)n[nH]c2OC(=N)C1C#N` (stereo unspecified) [MLS000121961] yielded an IC50 of 33.7 µM.

Work on `C=c1cc2[nH]c(=O)c(=Cc3cccn3CCCOc3ccc(OC)cc3)c(=N)n2o1` yielded an IC50 of 10.9 µM.

`Cc1ccc(-c2n[nH]c3c2C(c2ccoc2)C(C#N)C(=N)O3)cc1C` (stereo unspecified) [SMR000078160] showed an IC50 of 3.65 µM.

For `CCOc1cc(C2c3c(-c4ccccc4)n[nH]c3OC(=N)C2C#N)ccc1O` (stereo unspecified) [SMR000019337], the IC50 was 77.1 µM.

Work on `Cc1ccc(Nc2nnc(SCC(=O)C(C#N)c3nc4ccccc4[nH]3)s2)c(C)c1` (stereo unspecified) [2-(1,3-dihydrobenzimidazol-2-ylidene)-4-[[5-(2,4-dimethylanilino)-1,3,4-thiadiazol-2-yl]thio]-3-oxobutanenitrile] yielded an IC50 of 6.03 µM.

Work on `Cc1ccc(/N=C2/S/C(=C\c3cn(CC(=O)O)c4ccccc34)C(=O)N2C)cc1` [2-[3-[(Z)-[3-methyl-2-(4-methylphenyl)imino-4-oxo-5-thiazolidinylidene]methyl]-1-indolyl]acetic acid] yielded an IC50 of 11.4 µM.

`O=C(O)c1cc(N=NCc2ccc(OCc3ccccc3)cc2)ccc1Cl` [SMR000364895] was tested, and the IC50 was 20 µM.

For `COc1ccc2sc(-n3c(O)c4c(c3O)CC(C)=CC4)nc2c1`, the IC50 was 35 µM.

`O=C(O)c1ccc(CN=Nc2ccc(F)cc2F)cc1` [SMR000364892] showed an IC50 of 99.4 µM.

Work on `CCc1nnc(NS(=O)(=O)c2ccc(N=CCC(=O)c3cccc4ccccc34)cc2)s1` [SMR000172027] yielded an IC50 of 10.1 µM.

`CC(=NNC(=O)CCc1c(C)[nH][nH]c1=O)c1ccc([N+](=O)[O-])cc1` was tested, and the IC50 was 80.6 µM.

`COc1ccc(CN=Nc2ccc(C(=O)O)cc2)cc1Br` [4-[2-[(3-bromo-4-methoxyphenyl)methylidene]hydrazinyl]benzoic acid] was tested, and the IC50 was 23.4 µM.
